Source: PubChem BioAssay (NCI)
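Exposure lasted 48 hours, with cells grown in 96-well plates and compounds tested at five concentrations. Definition used: TGI = concentration required for complete inhibition of growth.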

What was measured:
Test in all cases: inhibition of tumour cell growth, NCI panel, 48 h
[1] = tested on: SF-295 CNS
[2] = tested on: SN12C renal
[3] = tested on: U251 CNS
[4] = tested on: RXF 393 renal
[5] = tested on: SNB-19 CNS
[6] = tested on: PC-3 prostate
[7] = tested on: OVCAR-4 ovarian
[8] = tested on: UO-31 renal
[9] = tested on: OVCAR-5 ovarian
[10] = tested on: HCT-15 colon
[11] = tested on: NCI-H23 lung
[12] = tested on: A549 NSCLC
[13] = tested on: TK-10 renal
[14] = tested on: SR leukemia
[15] = tested on: ACHN renal
[16] = tested on: MDA-MB-435
[17] = tested on: SK-MEL-2 melanoma
[18] = tested on: NCI-H460 lung
[19] = tested on: HCC-2998 colon
[20] = tested on: MDA-N
[21] = tested on: NCI/ADR-RES ovarian
[22] = tested on: BT-549 breast
[23] = tested on: MOLT-4 leukemia
[24] = tested on: CAKI-1 renal
[25] = tested on: SK-MEL-28 melanoma
[26] = tested on: SNB-75 CNS
[27] = tested on: HOP-92 NSCLC
[28] = tested on: UACC-62 melanoma
[29] = tested on: OVCAR-3 ovarian
[30] = tested on: A498 renal
[31] = tested on: SF-539 CNS
[32] = tested on: HOP-62 NSCLC
[33] = tested on: UACC-257 melanoma
[34] = tested on: SK-OV-3 ovarian
[35] = tested on: M14 melanoma
[36] = tested on: HL-60(TB) leukemia
[37] = tested on: CCRF-CEM leukemia
[38] = tested on: KM12 colon
[39] = tested on: SF-268 CNS
[40] = tested on: NCI-H226 lung
[41] = tested on: RPMI-8226 leukemia
[42] = tested on: OVCAR-8 ovarian
[43] = tested on: MDA-MB-231 breast

Q: Which results are given for COc1ccc(-c2csc(=Nc3ccccc3)n2CCCN(C)C)cc1?
A: TGI [1]: 27.6 µM; TGI [2]: > 100 µM; TGI [3]: > 100 µM; TGI [4]: 26.6 µM; TGI [5]: 48.1 µM; TGI [6]: 30.2 µM; TGI [7]: 65.6 µM; TGI [8]: 44.9 µM; TGI [9]: 30.4 µM; TGI [10]: > 100 µM; TGI [11]: 48.5 µM; TGI [12]: 36.3 µM; TGI [13]: 29.8 µM; TGI [14]: 67.1 µM; TGI [15]: 48.6 µM; TGI [16]: 65.3 µM; TGI [17]: 37.7 µM; TGI [18]: 78.4 µM; TGI [19]: 35.3 µM; TGI [20]: > 100 µM; TGI [21]: 54.3 µM; TGI [22]: 37.3 µM; TGI [23]: 48.9 µM; TGI [24]: > 100 µM; TGI [25]: 58.1 µM; TGI [26]: 19.3 µM; TGI [27]: > 100 µM; TGI [28]: 34.7 µM; TGI [29]: 37.5 µM; TGI [30]: 49.2 µM; TGI [31]: 32 µM; TGI [32]: 28.3 µM; TGI [33]: 37.5 µM; TGI [34]: 39.4 µM; TGI [35]: 24.4 µM; TGI [36]: > 100 µM; TGI [37]: > 100 µM; TGI [38]: 29.5 µM; TGI [39]: 56.4 µM; TGI [40]: 38.1 µM; TGI [41]: 60.8 µM; TGI [42]: 75.6 µM; TGI [43]: > 100 µM
